What all share (experiment): NCI-60 cell line screen, 48 h
Test [1] has as its system 786-0.
Test [2] deals with A498.
The test system of test [3] is ACHN.
Test [4] has as its system CCRF-CEM.
Test [5] relates to HOP-62.
Test [6] concerns HT-29.
Test [7] relates to K562.
Test [8] relates to MDA-MB-231.
For test [9], the system named is MDA-MB-435.
Test [10] relates to MDA-N.
Test [11] relates to Malme-3M.
Test [12] concerns NCI-H23.
The test system of test [13] is NCI-H460.
For test [14], the system named is NCI-H522.
In test [15] the test system is OVCAR-5.
In test [16] the test system is SF-539.
Test [17] deals with SW-620.
The subject of test [18] is T47D.
The subject of test [19] is U-251.
Test [20] deals with UACC-257.

The source of these data is ChEMBL document CHEMBL1201862, “PubChem BioAssay data set” (2004).

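All cell lines were grown in 96-well plates and treated with compound for 48 hours. GI50 = concentration required for 50% inhibition of growth.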 Activity calls are given as the source filed them. Rule as the data show it: active = GI50 up to about 1.1 µM and inactive = higher.

Take `C[C@]12CC[C@H](O)CC1=CC[C@@H]1[C@@H]2CC[C@]2(C)NC(=O)/C(=C\c3ccccc3)C[C@@H]12`: the GI50 was 19.8 µM (inactive) in test [1]; 15.2 µM (inactive) in [2]; 17.4 µM (inactive) in test [3]; 17 µM (inactive) in test [4]; 13.5 µM (inactive) in test [5]; 14.3 µM (inactive) in test [6]. In addition, the GI50 is 39.6 µM (inactive) in [7]; 16 µM (inactive) in test [8]; 18.3 µM (inactive) in test [9]; 24.3 µM (inactive) in [10]; 15.8 µM (inactive) in test [11]; 18.2 µM (inactive) in [12]. The GI50 in test [13] was 23.9 µM (inactive); in test [14], 10.5 µM (inactive); in test [15], 14.5 µM (inactive); in test [16], 14.6 µM (inactive); in test [17], 16.9 µM (inactive); in [18], 12.3 µM (inactive). The GI50 in test [19] was 14.1 µM (inactive); in test [20] it was 23.3 µM (inactive).
In the case of `COc1cc(C(c2cc(OC)c(OC)c(OC)c2)N2C(=O)CCC2C(=O)O)cc(OC)c1OC` (stereo not given), the GI50 in test [1], in [2], in test [3], in test [4], in test [5] and in test [6] was > 100 µM (inactive) throughout. The GI50 in test [7], in [8], in [9], in test [10], in test [11] and in test [12] was > 100 µM (inactive) throughout. Further, the GI50 in [13], in test [14], in [15], in [16], in [17] and in test [18] was > 100 µM (inactive) in each case. The GI50 in test [19] and in test [20] was > 100 µM (inactive) throughout.
For `CCOC(=O)c1nc2ccccc2nc1Nc1ccc(F)cc1`, the GI50 in test [1] was 17.9 µM (inactive); in [2] it was 20.9 µM (inactive); in [3] it was 27.5 µM (inactive); in test [4], > 100 µM (inactive); in test [5] it was 15.8 µM (inactive); in test [6] it was > 100 µM (inactive). In addition, the GI50 in test [7] was > 100 µM (inactive); in test [8], 8.13 µM (inactive); in test [9], > 100 µM (inactive); in [10] it was > 100 µM (inactive); in test [11] it was > 100 µM (inactive); in [12], 20.8 µM (inactive). Besides, the GI50 is 51.6 µM (inactive) in test [13]; 20.4 µM (inactive) in test [14]; > 59.3 µM (inactive) in test [15]; 14.2 µM (inactive) in test [16]; > 100 µM (inactive) in test [17]; 22.9 µM (inactive) in test [18]. In addition, the GI50 is 18.8 µM (inactive) in test [19] and > 100 µM (inactive) in test [20].
On to `O=C1/C(=C\c2cccc(Oc3ccccc3)c2)S(=O)(=O)C(c2ccccc2)N1c1cc(Cl)ccc1Cl` (stereo not given), for which the GI50 was 16.1 µM (inactive) in test [1]; 39.2 µM (inactive) in [2]; 18.8 µM (inactive) in [3]; 3.05 µM (inactive) in test [4]; 19.4 µM (inactive) in [5]; 5.96 µM (inactive) in [6]. Moreover, the GI50 was 3.74 µM (inactive) in test [7]; 28.7 µM (inactive) in test [8]; 8.13 µM (inactive) in test [9]; 10.3 µM (inactive) in [10]; 20.1 µM (inactive) in test [11]; 19.4 µM (inactive) in test [12]. In addition, the GI50 in test [13] was 28.1 µM (inactive); in [14], 18.3 µM (inactive); in [15], 20.4 µM (inactive); in test [16] it was 5.43 µM (inactive); in test [17] it was 3.83 µM (inactive); in [18] it was 20.3 µM (inactive). Also, the GI50 in test [19] is 16.5 µM (inactive); in test [20], 19.9 µM (inactive).
In the case of `C=CC(=O)C#Cc1cnc(OC)nc1OC`, the GI50 was 4.15 µM (inactive) in test [1]; 34.3 µM (inactive) in test [2]; 7.43 µM (inactive) in test [3]; 0.515 µM (active) in [4]; 22.8 µM (inactive) in test [5]; 16.1 µM (inactive) in [6]. In addition, the GI50 is 1.38 µM (inactive) in test [7]; 19.8 µM (inactive) in test [8]; 16.6 µM (inactive) in [9]; 16.4 µM (inactive) in [10]; 15.8 µM (inactive) in test [11]; 17.5 µM (inactive) in [12]. For the same molecule, the GI50 in test [13] was 24.6 µM (inactive); in [14] it was 6.41 µM (inactive); in test [15], 16.1 µM (inactive); in test [16] it was 13.3 µM (inactive); in test [17], 4.95 µM (inactive); in test [18], 21.7 µM (inactive). In addition, the figures for the GI50 in test [19] and in test [20] were 13.9 µM (inactive) and 6.38 µM (inactive), respectively.
Regarding `O=C1CC2[C@@H](N3CCCC3)CCC(N1Cc1ccccc1)C2(O)O` (stereo not given in full), the GI50 in [1], in test [2], in test [3], in [4], in test [5] and in [6] was > 100 µM (inactive) in each case. The GI50 in [7], in [8], in [9], in [10], in test [11] and in test [12] was > 100 µM (inactive) in each case. Moreover, the GI50 in [13], in [14], in test [15], in [16], in test [17] and in [18] was > 100 µM (inactive) in each case. The GI50 in [19] and in test [20] was > 100 µM (inactive) each time.
